Test results reported in ChEMBL document CHEMBL1201862, “PubChem BioAssay data set” (2004).
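96-well plates; 48 h exposure; 5 concentrations. Endpoints by linear interpolation between flanking doses. Not reached: highest tested concentration assigned. At the GI50, growth is halved.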 Calls of active or inactive are those of the source. Cut-off read from the data, not from the text of the source: active = GI50 up to about 1.1 µM and inactive = higher.

Legend:
Assay in all cases: inhibition of tumour cell growth, NCI panel, 48 h
[1] = test system: SN12C
[2] = test system: MOLT-4
[3] = test system: SK-OV-3
[4] = test system: SK-MEL-5
[5] = test system: HCT-15
[6] = test system: HOP-62
[7] = test system: NCI-H460
[8] = test system: A549
[9] = test system: OVCAR-4
[10] = test system: HT-29
[11] = test system: SR
[12] = test system: HOP-92
[13] = test system: SF-295
[14] = test system: UACC-62
[15] = test system: SNB-19
[16] = test system: TK-10
[17] = test system: SK-MEL-28
[18] = test system: MDA-N
[19] = test system: DU-145
[20] = test system: A498

Row | SMILES | GI50 [1] | GI50 [2] | GI50 [3] | GI50 [4] | GI50 [5] | GI50 [6] | GI50 [7] | GI50 [8] | GI50 [9] | GI50 [10] | GI50 [11] | GI50 [12] | GI50 [13] | GI50 [14] | GI50 [15] | GI50 [16] | GI50 [17] | GI50 [18] | GI50 [19] | GI50 [20]
1 | c1ccc(CSc2nnc3c4ccccc4c4ccccc4c3n2)cc1 | > 93.8 µM (inactive) | 39.1 µM (inactive) | 17.7 µM (inactive) | > 100 µM (inactive) | > 100 µM | 24.8 µM (inactive) | > 88.3 µM (inactive) | > 89.3 µM (inactive) | 48.1 µM (inactive) | > 100 µM (inactive) | 30.2 µM (inactive) | 21.2 µM (inactive) | 23.2 µM (inactive) | 46 µM (inactive) | 33.2 µM (inactive) | 26.9 µM (inactive) | > 100 µM (inactive) | 56.1 µM (inactive) | > 82.2 µM (inactive) | > 64.1 µM (inactive)
2 | O=C1/C(=C/c2ccccc2)CN(C(=O)/C=C/c2ccccc2)C/C1=C\c1ccccc1 | 5.43 µM (inactive) | 3.53 µM (inactive) | 27.7 µM (inactive) | 8.38 µM (inactive) | 6.17 µM | 23.7 µM (inactive) | 11.5 µM (inactive) | 11.1 µM (inactive) | 6.85 µM (inactive) | 3.07 µM (inactive) | 1.3 µM (inactive) | 25.9 µM (inactive) | 4.79 µM (inactive) | 5.69 µM (inactive) | 8.15 µM (inactive) | 16.1 µM (inactive) | 7.62 µM (inactive) | 1.87 µM (inactive) | 18.6 µM (inactive) | 33.3 µM (inactive)
3 | O=c1c2c3c(sc2nc2n1sc1nc4sc5c(c4c(=O)n12)CCCC5)CCCC3 | > 87.1 µM (inactive) | 37.1 µM (inactive) | 99.1 µM (inactive) | > 100 µM (inactive) | 62.8 µM | > 100 µM (inactive) | > 100 µM (inactive) | > 77.1 µM (inactive) | 18.7 µM (inactive) | 41.2 µM (inactive) | 25.8 µM (inactive) | 51.2 µM (inactive) | 64.6 µM (inactive) | 10.9 µM (inactive) | 92.9 µM (inactive) | 89.1 µM (inactive) | > 80.5 µM (inactive) | > 51.3 µM (inactive) | > 44.8 µM (inactive) | > 100 µM (inactive)
4 | NC(CC(=O)O)(Cc1ccccc1)C(=O)O (stereo not given) | > 100 µM (inactive) | > 100 µM (inactive) | > 100 µM (inactive) | > 100 µM (inactive) | > 100 µM | > 100 µM (inactive) | > 100 µM (inactive) | > 100 µM (inactive) | > 100 µM (inactive) | > 100 µM (inactive) | > 100 µM (inactive) | > 100 µM (inactive) | > 100 µM (inactive) | > 100 µM (inactive) | > 100 µM (inactive) | > 100 µM (inactive) | > 100 µM (inactive) | > 100 µM (inactive) | > 100 µM (inactive) | > 100 µM (inactive)
5 | CSc1ncnc2c1ncn2C1OC(CO)C(O)OC1O (stereo not given) | 1.06 µM (active) | 0.281 µM (active) | 20 µM (inactive) | 3.73 µM (inactive) | 0.506 µM | 3.7 µM (inactive) | 0.424 µM (active) | 0.662 µM (active) | 10.7 µM (inactive) | 0.449 µM (active) | 0.619 µM (active) | 0.822 µM (active) | 13.6 µM (inactive) | 2.96 µM (inactive) | 10.7 µM (inactive) | 0.219 µM (active) | 13.7 µM (inactive) | 2.24 µM (inactive) | 0.697 µM (active) | 1.11 µM (active)
6 | Cc1cc(S(=O)(=O)NC(=C(C#N)C#N)[n+]2ccc(N(C)C)cc2)c([S-])cc1Cl | > 100 µM (inactive) | > 100 µM (inactive) | > 100 µM (inactive) | > 100 µM (inactive) | > 100 µM | > 100 µM (inactive) | > 100 µM (inactive) | > 100 µM (inactive) | 99.5 µM (inactive) | > 100 µM (inactive) | > 100 µM (inactive) | 28.7 µM (inactive) | > 100 µM (inactive) | > 100 µM (inactive) | > 100 µM (inactive) | > 100 µM (inactive) | > 100 µM (inactive) | > 100 µM (inactive) | > 100 µM (inactive) | > 100 µM (inactive)
7 | Cc1nc(-c2ccc(Cl)cc2)cn2c1nc1ccccc12 | > 100 µM (inactive) | 26.3 µM (inactive) | > 100 µM (inactive) | 5.14 µM (inactive) | 19.4 µM | > 100 µM (inactive) | > 100 µM (inactive) | > 100 µM (inactive) | > 100 µM (inactive) | 99.1 µM (inactive) | 90.6 µM (inactive) | > 33.1 µM (inactive) | > 100 µM (inactive) | > 100 µM (inactive) | > 100 µM (inactive) | > 100 µM (inactive) | > 100 µM (inactive) | > 100 µM (inactive) | > 100 µM (inactive) | > 100 µM (inactive)
